Columns and labels:
Format in all cases: cell-based, human
M14 (Melanoma) = test: NCI one dose, M14; conditions: M14, 1.00E-5 Molar one dose
Protocol: (§1) 3.4. Cell Proliferation Assay
(§2) Selected compounds were tested on a panel of 60 human cancer cell lines at the National Cancer Institute (NCI), Germantown, MD, USA. The cytotoxicity studies were conducted using a 48 h exposure protocol using the sulfo-rhodamine B assay.

SN12C (Renal Cancer) = test: NCI one dose, SN12C; conditions: 1.00E-5 Molar one dose
Protocol: as §1, §2

HL-60(TB) (Leukemia) = test: NCI one dose, HL-60(TB); conditions: 1.00E-5 Molar one dose
Protocol: as §1, §2

SW-620 (Colon Cancer) = test: NCI one dose, SW-620; conditions: SW-620, 1.00E-5 Molar one dose
Protocol: as §1, §2

[1] = test system: NCI/ADR-RES (Ovarian Cancer); test: NCI one dose, NCI/ADR-RES; conditions: 1.00E-5 Molar one dose
Protocol: as §1, §2

[2] = test system: NCI-H226 (Non-Small Cell Lung Cancer); test: NCI one dose, NCI-H226; conditions: NCI-H226, 1.00E-5 Molar one dose
Protocol: as §1, §2

DU-145 (Prostate Cancer) = test: NCI one dose, DU-145; conditions: DU-145, 1.00E-5 Molar one dose
Protocol: as §1, §2

MDA-MB-435 (Melanoma) = test: NCI one dose, MDA-MB-435; conditions: MDA-MB-435, 1.00E-5 Molar one dose
Protocol: as §1, §2

K-562 leukaemia cells = test: NCI one dose, K-562; conditions: for Growth Percent: K-562, 1.00E-5 Molar one dose
Protocol: as §1, §2

For `O=C(NCc1ccccc1)[C@@H]1CS[C@H]2c3ccccc3C(=O)N12` [4aA], the “Growth Percent” value (M14 (Melanoma)) was 94.47%, the “Growth Percent” value (SN12C (Renal Cancer)) was 98.99% and the “Growth Percent” value (HL-60(TB) (Leukemia)) was 102.43%. For the same compound, the “Growth Percent” value (SW-620 (Colon Cancer)) was 102.46%, the “Growth Percent” value [1] was 99.86% and the “Growth Percent” value [2] was 86.94%. The “Growth Percent” value (DU-145 (Prostate Cancer)) was 111.90%, the “Growth Percent” value (MDA-MB-435 (Melanoma)) was 106.84% and the “Growth Percent” value (K-562 leukaemia cells) was 101.44%.
`O=C(NCc1ccccc1C(F)(F)F)[C@@H]1CS[C@H]2c3ccccc3C(=O)N12` [4aC] was tested, and the “Growth Percent” value (M14 (Melanoma)) was 95.62%, the “Growth Percent” value (SN12C (Renal Cancer)) was 101.45% and the “Growth Percent” value (HL-60(TB) (Leukemia)) was 101.08%. For the same compound, the “Growth Percent” value (SW-620 (Colon Cancer)) was 104.34%, the “Growth Percent” value [1] was 99.79% and the “Growth Percent” value [2] was 95.46%. For the same compound, the “Growth Percent” value (DU-145 (Prostate Cancer)) was 107.34%, the “Growth Percent” value (MDA-MB-435 (Melanoma)) was 102.87% and the “Growth Percent” value (K-562 leukaemia cells) was 94.12%.
For `O=C(NCc1cccc(C(F)(F)F)c1)[C@@H]1CS[C@H]2c3ccccc3C(=O)N12` [4aD], the “Growth Percent” value (M14 (Melanoma)) was 97.50%, the “Growth Percent” value (SN12C (Renal Cancer)) was 98.14% and the “Growth Percent” value (HL-60(TB) (Leukemia)) was 96.47%. For the same compound, the “Growth Percent” value (SW-620 (Colon Cancer)) was 107.41%, the “Growth Percent” value [1] was 92.62% and the “Growth Percent” value [2] was 100.68%. The “Growth Percent” value (DU-145 (Prostate Cancer)) was 110.52%, the “Growth Percent” value (MDA-MB-435 (Melanoma)) was 107.10% and the “Growth Percent” value (K-562 leukaemia cells) was 89.33%.
`COc1cccc(CNC(=O)[C@@H]2CS[C@H]3c4ccccc4C(=O)N23)c1` [4aE] was tested, and the “Growth Percent” value (M14 (Melanoma)) was 107.40%, the “Growth Percent” value (SN12C (Renal Cancer)) was 105.19% and the “Growth Percent” value (SW-620 (Colon Cancer)) was 108.22%. The “Growth Percent” value [1] was 106.48%, the “Growth Percent” value (DU-145 (Prostate Cancer)) was 104.21% and the “Growth Percent” value (MDA-MB-435 (Melanoma)) was 107.01%. The “Growth Percent” value (K-562 leukaemia cells) was 85.13%.
With `COc1ccc(CNC(=O)[C@@H]2CS[C@H]3c4ccccc4C(=O)N23)cc1` [4aF] the “Growth Percent” value (M14 (Melanoma)) was 99.91%, the “Growth Percent” value (SN12C (Renal Cancer)) was 110.21% and the “Growth Percent” value (HL-60(TB) (Leukemia)) was 97.30%. The “Growth Percent” value (SW-620 (Colon Cancer)) was 105.03%, the “Growth Percent” value [1] was 103.64% and the “Growth Percent” value [2] was 101.53%. The “Growth Percent” value (DU-145 (Prostate Cancer)) was 116.46%, the “Growth Percent” value (MDA-MB-435 (Melanoma)) was 114.08% and the “Growth Percent” value (K-562 leukaemia cells) was 99.90%.
For `COc1ccccc1CNC(=O)[C@@H]1CS[C@H]2c3ccccc3C(=O)N12` [4aG], the “Growth Percent” value (M14 (Melanoma)) was 104.36%, the “Growth Percent” value (SN12C (Renal Cancer)) was 110.50% and the “Growth Percent” value (SW-620 (Colon Cancer)) was 105.78%. The “Growth Percent” value [1] was 105.58%, the “Growth Percent” value (DU-145 (Prostate Cancer)) was 106.12% and the “Growth Percent” value (MDA-MB-435 (Melanoma)) was 110.28%. For the same compound, the “Growth Percent” value (K-562 leukaemia cells) was 81.36%.
`O=C(NCc1ccc(Cl)cc1Cl)[C@@H]1CS[C@H]2c3ccccc3C(=O)N12` [4aH] was tested, and the “Growth Percent” value (M14 (Melanoma)) was 99.48%, the “Growth Percent” value (SN12C (Renal Cancer)) was 98.06% and the “Growth Percent” value (HL-60(TB) (Leukemia)) was 93.16%. For the same compound, the “Growth Percent” value (SW-620 (Colon Cancer)) was 105.59%, the “Growth Percent” value [1] was 92.00% and the “Growth Percent” value [2] was 95.83%. The “Growth Percent” value (DU-145 (Prostate Cancer)) was 109.93%, the “Growth Percent” value (MDA-MB-435 (Melanoma)) was 100.39% and the “Growth Percent” value (K-562 leukaemia cells) was 91.56%.
For `COc1ccc(CNC(=O)[C@@H]2CS[C@H]3c4ccccc4C(=O)N23)cc1OC` [4aI], the “Growth Percent” value (M14 (Melanoma)) was 107.33%, the “Growth Percent” value (SN12C (Renal Cancer)) was 100.89% and the “Growth Percent” value (SW-620 (Colon Cancer)) was 102.54%. The “Growth Percent” value [1] was 99.35%, the “Growth Percent” value (DU-145 (Prostate Cancer)) was 107.46% and the “Growth Percent” value (MDA-MB-435 (Melanoma)) was 107.42%. The “Growth Percent” value (K-562 leukaemia cells) was 84.27%.
With `COc1cc(CNC(=O)[C@@H]2CS[C@H]3c4ccccc4C(=O)N23)cc(OC)c1OC` [4aJ] the “Growth Percent” value (M14 (Melanoma)) was 94.92%, the “Growth Percent” value (SN12C (Renal Cancer)) was 99.01% and the “Growth Percent” value (HL-60(TB) (Leukemia)) was 96.47%. The “Growth Percent” value (SW-620 (Colon Cancer)) was 104.14%, the “Growth Percent” value [1] was 95.00% and the “Growth Percent” value [2] was 97.62%. The “Growth Percent” value (DU-145 (Prostate Cancer)) was 113.37%, the “Growth Percent” value (MDA-MB-435 (Melanoma)) was 106.49% and the “Growth Percent” value (K-562 leukaemia cells) was 90.55%.
With `C[C@@]12SC[C@@H](C(=O)NCc3ccccc3)N1C(=O)c1ccccc12` [4bA] the “Growth Percent” value (M14 (Melanoma)) was 101.98%, the “Growth Percent” value (SN12C (Renal Cancer)) was 95.20% and the “Growth Percent” value (SW-620 (Colon Cancer)) was 108.38%. The “Growth Percent” value [1] was 98.79%, the “Growth Percent” value (DU-145 (Prostate Cancer)) was 110.52% and the “Growth Percent” value (MDA-MB-435 (Melanoma)) was 101.35%. The “Growth Percent” value (K-562 leukaemia cells) was 91.39%.
In the case of `C[C@@]12SC[C@@H](C(=O)NCc3ccccc3Br)N1C(=O)c1ccccc12` [4bB], the “Growth Percent” value (M14 (Melanoma)) is reported as 107.44%, the “Growth Percent” value (SN12C (Renal Cancer)) is reported as 89.32% and the “Growth Percent” value (SW-620 (Colon Cancer)) is reported as 103.50%. For the same compound, the “Growth Percent” value [1] was 94.45%, the “Growth Percent” value (DU-145 (Prostate Cancer)) was 101.37% and the “Growth Percent” value (MDA-MB-435 (Melanoma)) was 96.92%. The “Growth Percent” value (K-562 leukaemia cells) was 80.28%.
`C[C@@]12SC[C@@H](C(=O)NCc3ccccc3C(F)(F)F)N1C(=O)c1ccccc12` [4bC] was tested, and the “Growth Percent” value (M14 (Melanoma)) was 100.54%, the “Growth Percent” value (SN12C (Renal Cancer)) was 94.74% and the “Growth Percent” value (SW-620 (Colon Cancer)) was 104.67%. The “Growth Percent” value [1] was 101.64%, the “Growth Percent” value (DU-145 (Prostate Cancer)) was 102.05% and the “Growth Percent” value (MDA-MB-435 (Melanoma)) was 98.98%. For the same compound, the “Growth Percent” value (K-562 leukaemia cells) was 87.85%.
`C[C@@]12SC[C@@H](C(=O)NCc3cccc(C(F)(F)F)c3)N1C(=O)c1ccccc12` [4bD] was tested, and the “Growth Percent” value (M14 (Melanoma)) was 103.59%, the “Growth Percent” value (SN12C (Renal Cancer)) was 93.35% and the “Growth Percent” value (SW-620 (Colon Cancer)) was 108.66%. The “Growth Percent” value [1] was 100.57%, the “Growth Percent” value (DU-145 (Prostate Cancer)) was 108.47% and the “Growth Percent” value (MDA-MB-435 (Melanoma)) was 102.18%. For the same compound, the “Growth Percent” value (K-562 leukaemia cells) was 81.47%.
For `COc1cccc(CNC(=O)[C@@H]2CS[C@@]3(C)c4ccccc4C(=O)N23)c1` [4bE], the “Growth Percent” value (M14 (Melanoma)) was 104.58%, the “Growth Percent” value (SN12C (Renal Cancer)) was 101.62% and the “Growth Percent” value (SW-620 (Colon Cancer)) was 104.85%. For the same compound, the “Growth Percent” value [1] was 98.88%, the “Growth Percent” value (DU-145 (Prostate Cancer)) was 106.55% and the “Growth Percent” value (MDA-MB-435 (Melanoma)) was 98.34%. For the same compound, the “Growth Percent” value (K-562 leukaemia cells) was 82.59%.
With `COc1ccc(CNC(=O)[C@@H]2CS[C@@]3(C)c4ccccc4C(=O)N23)cc1` [4bF] the “Growth Percent” value (M14 (Melanoma)) was 102.83%, the “Growth Percent” value (SN12C (Renal Cancer)) was 101.88% and the “Growth Percent” value (SW-620 (Colon Cancer)) was 106.66%. The “Growth Percent” value [1] was 97.36%, the “Growth Percent” value (DU-145 (Prostate Cancer)) was 105.22% and the “Growth Percent” value (MDA-MB-435 (Melanoma)) was 102.01%. For the same compound, the “Growth Percent” value (K-562 leukaemia cells) was 77.39%.
In the case of `COc1ccccc1CNC(=O)[C@@H]1CS[C@@]2(C)c3ccccc3C(=O)N12` [4bG], the “Growth Percent” value (M14 (Melanoma)) is reported as 100.11%, the “Growth Percent” value (SN12C (Renal Cancer)) is reported as 107.44% and the “Growth Percent” value (SW-620 (Colon Cancer)) is reported as 104.41%. For the same compound, the “Growth Percent” value [1] was 102.18%, the “Growth Percent” value (DU-145 (Prostate Cancer)) was 107.06% and the “Growth Percent” value (MDA-MB-435 (Melanoma)) was 103.94%. For the same compound, the “Growth Percent” value (K-562 leukaemia cells) was 85.09%.
With `C[C@@]12SC[C@@H](C(=O)NCc3ccc(Cl)cc3Cl)N1C(=O)c1ccccc12` [4bH] the “Growth Percent” value (M14 (Melanoma)) was 108.31%, the “Growth Percent” value (SN12C (Renal Cancer)) was 97.63% and the “Growth Percent” value (SW-620 (Colon Cancer)) was 104.06%. For the same compound, the “Growth Percent” value [1] was 96.56%, the “Growth Percent” value (DU-145 (Prostate Cancer)) was 109.42% and the “Growth Percent” value (MDA-MB-435 (Melanoma)) was 102.36%. For the same compound, the “Growth Percent” value (K-562 leukaemia cells) was 79.34%.
For `COc1ccc(CNC(=O)[C@@H]2CS[C@@]3(C)c4ccccc4C(=O)N23)cc1OC` [4bI], the “Growth Percent” value (M14 (Melanoma)) was 107.68%, the “Growth Percent” value (SN12C (Renal Cancer)) was 96.04% and the “Growth Percent” value (SW-620 (Colon Cancer)) was 101.58%. The “Growth Percent” value [1] was 100.18%, the “Growth Percent” value (DU-145 (Prostate Cancer)) was 103.50% and the “Growth Percent” value (MDA-MB-435 (Melanoma)) was 105.24%. The inhibition at 10 µM (K-562 leukaemia cells; Homo sapiens, K562, 10 µM single dose, read-out: inhibition of growth of K-562 leukaemia cells) was 34% and the “Growth Percent” value (K-562 leukaemia cells) was 66.10%.
`COc1cc(CNC(=O)[C@@H]2CS[C@@]3(C)c4ccccc4C(=O)N23)cc(OC)c1OC` [4bJ] was tested, and the “Growth Percent” value (M14 (Melanoma)) was 108.34%, the “Growth Percent” value (SN12C (Renal Cancer)) was 91.58% and the “Growth Percent” value (SW-620 (Colon Cancer)) was 100.88%. For the same compound, the “Growth Percent” value [1] was 101.60%, the “Growth Percent” value (DU-145 (Prostate Cancer)) was 108.72% and the “Growth Percent” value (MDA-MB-435 (Melanoma)) was 104.68%. The “Growth Percent” value (K-562 leukaemia cells) was 71.92%.
